Experimental findings from patent publication EP0049801B1, “Sucrose-mutase, immobilized sucrose-mutase and use of this immobilized sucrose-mutase for the production of isomaltulose(6-O-alpha-D-glucopyranosido-D fructose)” (BAYER AG, priority 1980, dated 1982) are described below.

For the test, the system named is Saccharose-Mutase. In words: Influence of ions on the enzymatic reaction. Type of test: biochemical, Protaminobacter rubrum. On the procedure: Das freie Enzym wird bei Temperaturen > 40 °C rasch inaktiviert. Die Reaktion wird durch CU- + Zn-Ionen stark gehemmt.

For `OB(O)O` [Borat], the “Einfluß auf die enzymatische Aktivität” value is “keinen Einfluß”. Regarding `[Cu+2]` [CU], the “Einfluß auf die enzymatische Aktivität” value is reported as “stark gehemmt”.
